Columns and labels:
EA-activated TRPC4 = target: T1, EA-activated TRPC4 (Mus musculus, UniProt Q9QUQ5); assay: FLIPR Ca2+ assay, E isomers silencing EA-activated TRPC4 (HEK293-mTRPC4β-YFP); assay type: cell-based; settings: Inhibitory IC50 (versus 30 nM EA) TRPC4, E isomer, thermally relaxed; 30 nM EA
T1 construct: expressed in transfected cells; host or cells: HEK293-mTRPC4β-YFP
T1 sequence (Q9QUQ5 1-890 isoform Q9QUQ5-2): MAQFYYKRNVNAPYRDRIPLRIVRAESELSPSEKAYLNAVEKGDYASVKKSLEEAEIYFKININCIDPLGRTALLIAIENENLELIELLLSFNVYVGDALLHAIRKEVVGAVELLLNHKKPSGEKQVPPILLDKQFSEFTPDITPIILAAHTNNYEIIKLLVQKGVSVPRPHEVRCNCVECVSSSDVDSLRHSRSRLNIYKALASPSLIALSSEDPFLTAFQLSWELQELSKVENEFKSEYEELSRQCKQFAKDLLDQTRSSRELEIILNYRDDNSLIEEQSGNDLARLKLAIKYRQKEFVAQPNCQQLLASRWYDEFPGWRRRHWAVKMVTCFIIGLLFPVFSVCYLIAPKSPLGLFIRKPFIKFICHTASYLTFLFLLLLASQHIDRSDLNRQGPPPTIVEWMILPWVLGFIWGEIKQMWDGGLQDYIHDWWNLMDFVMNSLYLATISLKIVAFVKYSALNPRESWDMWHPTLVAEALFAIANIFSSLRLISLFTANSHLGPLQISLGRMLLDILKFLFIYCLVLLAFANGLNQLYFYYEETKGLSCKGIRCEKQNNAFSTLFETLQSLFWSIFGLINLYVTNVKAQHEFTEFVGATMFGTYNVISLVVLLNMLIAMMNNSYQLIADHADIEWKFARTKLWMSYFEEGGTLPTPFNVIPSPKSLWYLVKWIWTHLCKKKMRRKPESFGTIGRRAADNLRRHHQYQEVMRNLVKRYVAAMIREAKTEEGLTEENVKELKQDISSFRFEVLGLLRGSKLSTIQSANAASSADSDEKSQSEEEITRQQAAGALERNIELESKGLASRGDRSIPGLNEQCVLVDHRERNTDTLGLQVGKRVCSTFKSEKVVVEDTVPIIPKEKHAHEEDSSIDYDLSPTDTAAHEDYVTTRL
Excerpt: (§1) (2) The EC50 values are reported as the midpoints of unconstrained sigmoidal fits to the FLIPR data (Fig 1l and Supplementary Fig. 2): with different levels of channel activation / blocking and very different Hill slopes across different compounds, isomers, and the two channels. This argues that the midpoint values only capture one of the several important factors describing the […]
(§2) We believe that it is possible to derive indicative relative values for binding affinity comparing the E and Z isomers of the same compound using only the combination of FLIPR and ephys data as reported in this paper; this analysis is being developed in a separate paper (see also below).
(§3) Supplementary Table 1. Potencies on TRPC4/5 depicted as either simple agonistic potency (blue) or else inhibitory […]
(§4) . Z*-values refer to mostly-Z-isomer reached at PSS at 365 nm, E*-values refer to experiments that initially applied 100% E-isomer (thermally relaxed), though in both cases the Ca2+ imaging in FLIPR with Fluo4-AM uses 470 nm excitation, which may over time promote photoswitching towards a PSS that is intermediate between those of pure-365 nm and all-E; this is controlled for in the more reliable ephys measurements). (Table indices: a, data from ref7; b, data from ref2; c, data from ref3; d, data from ref8.) EC50 [nM] (for simple agonism or EA-competitive inhibition)
(§5) E-AzPico 90 (vs 30 nM EA) 67 (vs 30 nM EA) […]
(§6) orange: inhibitory effect ag.: agonistic effect
(§7) 1.1.1 From always-active antagonists and agonists towards efficacy photoswitches […]
(§8) photoisomerising an azobenzene that is merged in at the C’4 position yielding the compounds […]
deliver (Fig. 1-2) is a powerful support for an efficacy switch interpretation. To indirectly support this further, we also measured the effects of E-AzPico and E-AzHC against EA-activated TRPC4/5. […]
(§9) to be an EA-competitive binder5,9,10), so their efficacy as single agent photoswitches results from E/Z-competitive binding that is determined by their PSS. […]
(§10) Supplementary Table 2. […] (a Inhibitory effect measured against 30 nM EA; b Inhibitory effect measured against 50 nM EA). […]

EA-activated TRPC5 = target: T2, EA-activated TRPC5 (Mus musculus, UniProt Q9QX29); assay: FLIPR Ca2+ assay, E isomers silencing EA-activated TRPC5 (HEK293-mTRPC5-YFP); assay type: cell-based
T2 construct: expressed in transfected cells; host or cells: HEK293-mTRPC5-YFP
T2 sequence (Q9QX29 1-975): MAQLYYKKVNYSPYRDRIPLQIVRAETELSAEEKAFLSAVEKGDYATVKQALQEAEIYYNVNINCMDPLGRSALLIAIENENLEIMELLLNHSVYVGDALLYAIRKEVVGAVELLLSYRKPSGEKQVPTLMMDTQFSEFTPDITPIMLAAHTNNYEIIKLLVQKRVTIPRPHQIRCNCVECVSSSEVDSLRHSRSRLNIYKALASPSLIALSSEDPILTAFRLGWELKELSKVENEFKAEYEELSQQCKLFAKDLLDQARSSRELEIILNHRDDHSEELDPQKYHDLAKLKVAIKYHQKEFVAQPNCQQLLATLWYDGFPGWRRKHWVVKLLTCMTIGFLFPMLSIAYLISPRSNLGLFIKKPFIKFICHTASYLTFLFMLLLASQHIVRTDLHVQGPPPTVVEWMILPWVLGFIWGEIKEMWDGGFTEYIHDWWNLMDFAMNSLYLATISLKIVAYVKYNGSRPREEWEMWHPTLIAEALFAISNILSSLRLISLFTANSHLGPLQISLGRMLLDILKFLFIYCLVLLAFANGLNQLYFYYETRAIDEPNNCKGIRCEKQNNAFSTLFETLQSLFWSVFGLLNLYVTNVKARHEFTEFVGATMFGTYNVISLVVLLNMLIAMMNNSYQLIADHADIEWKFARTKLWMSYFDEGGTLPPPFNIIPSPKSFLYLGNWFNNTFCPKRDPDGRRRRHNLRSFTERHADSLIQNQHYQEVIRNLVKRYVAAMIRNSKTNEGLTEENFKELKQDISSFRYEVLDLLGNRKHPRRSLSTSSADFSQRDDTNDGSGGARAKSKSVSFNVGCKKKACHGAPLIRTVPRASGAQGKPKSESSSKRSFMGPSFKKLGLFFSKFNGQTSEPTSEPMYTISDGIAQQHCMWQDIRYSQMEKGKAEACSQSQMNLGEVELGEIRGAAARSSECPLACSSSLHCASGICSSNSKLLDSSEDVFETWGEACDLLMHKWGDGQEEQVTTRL
Excerpt: Müller, Niemeyer, et al., Schaefer & Thorn-Seshold 2025: Ideal Efficacy Photoswitching of TRPC4/5 in Tissue but it can justify why the affinity of the E/Z-isomers may be similar.
as §1, §2, §3, §4, §5, §6, §7, §8
inhibitory effect for the E-isomers (Supplementary Table 1). Essentially, the effects of Pico145 and AM237 are latent within a single (two-state reversibly photoswitchable) molecule. This combination is what we call an efficacy switch (also see main text Fig. 1e-j).
1.1.2 Mechanistic test for efficacy photoswitching […]
deliver (Fig. 1-2) is a powerful support for an efficacy switch interpretation. To indirectly support this further, we also measured the effects of E-AzPico and E-AzHC against EA-activated TRPC4/5.
Both E-isomers bind to TRPC4/5 and inhibit EA-evoked currents with nanomolar potencies (Supplementary Fig. 2, Supplementary Table 2). This supports the hypothesis that E- […]
as §9, §10

mouse TRPC4β = target: T3, mouse TRPC4β (Mus musculus, UniProt Q9QUQ5); assay: FLIPR Ca2+ influx assay (Fluo-4) with 365/447 nm photoswitching, HEK293 stably expressing mouse TRPC4β; assay type: cell-based; settings: Z* = mostly-Z PSS under 365 nm LED; Fluo-4-loaded cells; read-out: Agonistic EC50 (365 nm) TRPC4
T3 construct: expressed in transfected cells; host or cells: HEK293 (ATCC CRL 1573), stably transfected, tetracycline-induced
T3 sequence (Q9QUQ5 1-890 isoform Q9QUQ5-2): T1 sequence (Q9QUQ5 1-890 isoform Q9QUQ5-2)
Excerpt: (§11) We initially screened for the photoswitchability of activity in cells using a fluorometric imaging plate reader (FLIPR) calcium flux assay, with HEK293 cells stably expressing mouse TRPC4β or mouse TRPC5. Note, however, that the parallel-throughput FLIPR setup is limited to use fixed light-emitting diodes at 365 nm (good Z) and 447 nm (suboptimal E), which, combined with the slowness of the onset and recovery of the fluorescence readout for calcium, causes the FLIPR results to underestimate the reagents’ true speed, degree and completion of TRPC chromocontrol (shown later). […]
(§12) 3 Cultured Cell Lines (primarily for Fig. 1 and Fig. 2)
(§13) 3.1 FLIPR Ca2+ influx assay in cell suspensions.
(§14) We initially screened for photoswitchability of activity in cells, using a fluorometric imaging plate reader (FLIPR) calcium flux assay, with human embryonic kidney cell line HEK293 stably transfected to express mouse TRPC4β- or TRPC5-CFP fusion protein (HEKmTRPC4β-CFP / HEKmTRPC5-CFP, HEK293 obtained from ATCC CRL 1573). The FLIPR setup provides high-content data, but it is limited to using LED wavelengths of 365 nm (best-Z) and 447 nm (suboptimal-E), while imaging at 470 nm excitation (Fluo-4 AM as Ca2+ indicator; this imaging light counteracts both PSSs). Therefore, we expected the FLIPR results to under-estimate the true chromocontrol power accessible to the reagents.
(§15) Cells were grown to 70%-90% confluency in a 75-cm2 culture flask, trypsinised, washed and resuspended in BSA-containing (0.1%) HBS, and supplemented with 3 µM Fluo-4/AM. Stably TRPC-transfected cells were induced with tetracycline 24 h prior to the experiments.42,43 After incubation at 37°C for 30 min [Fluo-4 loading], cells were again washed, resuspended, and dispensed (40 µl/well) into black pigmented, clear-bottom 384-well plates (Greiner µ-clear). To image the Fluo-4 fluorescence during the application and photoswitching of test compounds, these plates were first mounted to a Tecan Fluent 480 (Tecan, Männedorf, Switzerland) liquid handling device, equipped with a 384-tip multichannel arm and a gripper arm. A custom-made plate-imaging device was used for photoswitching during fluorescence imaging, which features LED-based excitation modules (365 nm and 447 nm used here for photoswitching, and 470 nm used here for Fluo-4 readout) projected onto the bottom of the microwell plate, with a cooled scientific complementary metal oxide sensor (sCMOS) camera (Zyla 5.5, Andor, Belfast, UK) equipped with a Nokton 42.5 mm f/0.95 (Voigtlaender, Fürth, Germany) for detection. The LEDs were controlled with an Arduino device and constant current drivers (1 A for 365 and 470 nm LEDs; 3 A for 447 nm LED); detection was under the control of Micromanager 2.0 software. Compounds were serially diluted and applied to the Fluo-4-loaded cell suspensions inside this custom plate-imaging device, then fluorescence intensities (under 470 nm excitation) were continuously recorded during programmed illuminations e.g. with alternating 365 nm and 447 nm phases.
(§16) Concentration-response curves for the Z-isomers (channel activation) were then constructed from the maximal signals during 365 nm phases, after a suitable number of "priming" cycles to allow the system to reach stable performance (Supplementary Fig. 13).
All experiments were conducted as a minimum of 3 independent experiments with each experiment averaging data in technical duplicates.
Cellular TRPC4 photoswitching: HEK cell Ca2+ influx photomodulation […]
Supplementary Figure 12. […]

mouse TRPC5 = target: T4, mouse TRPC5 (Mus musculus, UniProt Q9QX29); assay: FLIPR Ca2+ influx assay (Fluo-4) with 365/447 nm photoswitching, HEK293 stably expressing mouse TRPC5; assay type: cell-based; settings: Z* = mostly-Z PSS under 365 nm LED; Fluo-4-loaded cells; read-out: Agonistic EC50 (365 nm) TRPC5
T4 construct: expressed in transfected cells; host or cells: HEK293 (ATCC CRL 1573), stably transfected, tetracycline-induced
T4 sequence (Q9QX29 1-975): T2 sequence (Q9QX29 1-975)
Excerpt: as §11, §12, §13, §14, §15, §16
All experiments were conducted as a minimum of 3 independent experiments with each experiment averaging data in technical duplicates. […]
Cellular TRPC5 photoswitching: HEK cell Ca2+ influx photomodulation […]
Supplementary Figure 12. […] All […]
four compounds' profiles are consistent with their being ideal efficacy photoswitches (representative traces from one experiment out of ≥3 independent experiments each run in technical duplicates). […]
log c [nM] log c [nM] log c [nM] log c [nM]
Supplementary Figure 13. Dose-response for Z*-AzPico, Z*-AzPico2, Z*-AzHC, and Z*-AzHC2 on TRPC5 and […]

[1] = system: Th+ neurons of Th-GCaMP6f-ΔTrpc5 mice; assay: GCaMP6f Ca2+ imaging of Th+ neurons in arcuate nucleus brain slices with 355 nm photoswitching, Th-GCaMP6f-ΔTrpc5 (5ko) mice; settings: 500 nM; 355 nm pulse
Excerpt: slices through the ARC of mice expressing the Ca2+ indicator GCaMP6f in Th+ neurons (Fig. 4),
we investigated (1) whether Ca2+ responses at endogenous TRPC5 expression levels can be
TRPC5 expression using TRPC5-deficient brain slices, (3) whether a dose dependence could be
detected, and (4) whether there are properties in channel activity that can be distinguished between
concentration-response measurements (Fig. 5d).

## Cn1c(=O)n(CCCO)c(=O)c2c1nc(Oc1ccc(/N=N/c3ccccc3)c(Cl)c1)n2Cc1ccc(Cl)cc1 [E-AzHC]
EA-activated TRPC4
  IC50: 0.11 µM
EA-activated TRPC5; Inhibitory IC50 (versus 30 nM EA) TRPC5, E isomer, thermally relaxed, 30 nM EA
  IC50: 0.149 µM
EA-activated TRPC5; Inhibitory IC50 (versus 50 nM EA) TRPC5, E isomer, 50 nM EA
  IC50: 0.177 µM

## Cn1c(=O)n(CCCO)c(=O)c2c1nc(Oc1ccc(/N=N\c3ccccc3)c(OC(F)(F)F)c1)n2Cc1ccc(Cl)cc1 [Z*-AzPico]
Mouse TRPC4β
  EC50: 0.003 µM
Mouse TRPC5
  EC50: 0.004 µM
[1]
  Ca2+ photoresponse in TRPC5-knockout slices: maintained
